# Experimental data: paper PMC10215804, “Exploring Alternative Pathways to Target Bacterial Type II Topoisomerases Using NBTI Antibacterials: Beyond Halogen-Bonding Interactions” (Antibiotics, 2023)
# Like-named read-outs stand apart in the source and are kept apart here.
# Assays:
# S. aureus DNA gyrase = target: T1, S. aureus DNA gyrase (Staphylococcus aureus, UniProt P20831); assay: biochemical; settings: supercoiling inhibition; mean of two independent measurements ± SD
# T1 construct: purchased Inspiralis (Norwich, UK)
# Experimental: (§1) To determine the IC50 values of the compounds for S. aureus and E. coli, a DNA gyrase supercoiling high-throughput plate assay and a topoIV relaxation high-throughput plate assay were performed. Assay kits and black streptavidin-coated 96-well microtiter plates are available from Inspiralis (Norwich, UK). For pre-screening, an inhibitor concentration of 100 μM was used. […] A nonlinear regression-based fit of the inhibition curves was used, with the log [inhibitor] versus slope of the reaction variables (four parameters) and a symmetric equation. […] To determine IC50 values, two independent repetitions were performed and the average was calculated.
# S. aureus topoIV = target: T2, S. aureus topoIV (Staphylococcus aureus, UniProt P0C1U9); assay: biochemical; settings: relaxation inhibition; mean of two independent measurements ± SD
# T2 construct: purchased Inspiralis (Norwich, UK)
# Experimental: as §1
# E. coli DNA gyrase = target: T3, E. coli DNA gyrase (Escherichia coli, UniProt P0AES4); assay: DNA gyrase supercoiling inhibition assay (high-throughput plate assay); format: biochemical
# T3 construct: purchased Inspiralis (Norwich, UK)
# Experimental: as §1
# E. coli topoIV = target: T4, E. coli topoIV (Escherichia coli, UniProt P0AFI2); assay: topoIV relaxation inhibition assay (high-throughput plate assay); format: biochemical
# T4 construct: purchased Inspiralis (Norwich, UK)
# Experimental: as §1
# human topoisomerase IIα = target: T5, human topoisomerase IIα (Homo sapiens, UniProt P11388); assay: human topoisomerase II alpha relaxation high-throughput assay (selectivity); format: biochemical; settings: residual activity at 100 µM compound; mean ± SD, two independent experiments; read-out: Human TopoIIα (% RA at 100 µM)
# T5 construct: purchased Inspiralis (Norwich, UK)
# Experimental: For selectivity determination, a human topoisomerase II alpha relaxation high-throughput assay was used. The assay kits and black streptavidin-coated 96-well microtiter plates are available from Inspiralis (Norwich, UK). Two independent measurements were performed with an inhibitory concentration of 100 µM. Raw data were calculated as the mean ± SD percentage of the residual enzyme activity.
# A. baumannii = assay: MIC, broth microdilution; format: cell-based; settings: Acinetobacter baumannii
# Experimental: (§2) For the determination of minimum inhibitory concentrations (MIC), the broth microdilution method was used in 96-well plate format, according to the guidelines of the Clinical and Laboratory Standards Institute and the recommendations of the European Committee on Antimicrobial Susceptibility Testing (EUCAST). The dilutions of the bacterial suspension of the specific bacterial strain, corresponding to the 0.5 McFarland turbidity standard, were prepared with […] Mueller–Hinton broth with TES (Thermo Fisher Scientific) to obtain an end inoculum of 10^5 CFU/mL. The compounds were dissolved in DMSO and mixed with the inoculum. […] The MIC was determined as the lowest concentration of antibiotic that prevented visible bacterial growth. Tetracycline was used as a positive control on each test plate.
# E. coli (ATCC 25922) = assay: MIC, broth microdilution; format: cell-based; settings: Escherichia coli
# Experimental: as §2
# E. coli D22 = assay: MIC, broth microdilution; format: cell-based; settings: Escherichia coli
# Experimental: as §2
# E. coli ESBL QA-11.3 = assay: MIC, broth microdilution; format: cell-based; settings: Escherichia coli
# Experimental: as §2
# E. coli N43 (CGSC# 5583) = assay: MIC, broth microdilution; format: cell-based; settings: Escherichia coli
# Experimental: as §2
# E. faecalis RDK 057 = assay: MIC, broth microdilution; format: cell-based; settings: Enterococcus faecalis, RDK057
# Experimental: as §2
# K. pneumoniae = assay: MIC, broth microdilution; format: cell-based; settings: Klebsiella pneumoniae
# Experimental: as §2
# P. aeruginosa RDK 184 = assay: MIC, broth microdilution; format: cell-based; settings: Pseudomonas aeruginosa
# Experimental: as §2
# S. aureus (ATCC 29213) = assay: MIC, broth microdilution; format: cell-based; settings: Staphylococcus aureus
# Experimental: as §2
# [1] = Metabolic activity assessment (cytotoxicity), CellTiter 96 Aqueous One; format: cell-based; settings: human, 72 h treatment, means of three independent measurements ± SD
# Experimental: HUVEC (ATCC® CRL-1730™) and HepG2 (ATCC® HB-8065™) cell lines were cultured in Dulbecco’s Modified Eagle Medium (DMEM; Sigma-Aldrich, St. Louis, MO, USA) supplemented with 10% heat-deactivated FBS (Gibco, Grand Island, NE, USA), 2 mM L-glutamine, 100 U/mL penicillin, 100 μg/mL streptomycin (all from Sigma-Aldrich, St. Louis, MO, USA) in a humidified chamber at 37 °C and 5% CO2. The experiments were carried out on passages 4–7 for both cell lines. The tested compounds were dissolved in DMSO and further diluted in culture medium to a desired final concentration. The cells were then seeded into 96-well plates at 5 × 10^4 cells/mL (100 μL/well) or 8 × 10^4 cells/mL (100 μL/well) for HUVEC and HepG2, respectively. The cells were then incubated for 24 h to allow attachment onto the wells. The cells were treated with 1 μM and 50 μM of each compound of interest, or the corresponding vehicle as control. […] Their metabolic activity was assessed after 72 h treatment using a CellTiter 96 Aqueous One Solution Cell Proliferation Assay (Promega, Madison, WI, USA), in accordance with the manufacturer’s instructions. The absorbance was measured at 492 nm on an automated microplate reader, Tecan Spark (Tecan Group Ltd., Männedorf, CH, Switzerland). Data are presented as the percentage of metabolic activity of control cells stimulated with vehicle, or as an IC50 value (mean ± SD) from three independent experiments, each conducted in triplicate (for screening) or duplicate (for IC50 determination). IC50 values were calculated using a non-linear regression model and with Graph Pad Prism 9 software.
# T4 sequence (P20083 whole entry): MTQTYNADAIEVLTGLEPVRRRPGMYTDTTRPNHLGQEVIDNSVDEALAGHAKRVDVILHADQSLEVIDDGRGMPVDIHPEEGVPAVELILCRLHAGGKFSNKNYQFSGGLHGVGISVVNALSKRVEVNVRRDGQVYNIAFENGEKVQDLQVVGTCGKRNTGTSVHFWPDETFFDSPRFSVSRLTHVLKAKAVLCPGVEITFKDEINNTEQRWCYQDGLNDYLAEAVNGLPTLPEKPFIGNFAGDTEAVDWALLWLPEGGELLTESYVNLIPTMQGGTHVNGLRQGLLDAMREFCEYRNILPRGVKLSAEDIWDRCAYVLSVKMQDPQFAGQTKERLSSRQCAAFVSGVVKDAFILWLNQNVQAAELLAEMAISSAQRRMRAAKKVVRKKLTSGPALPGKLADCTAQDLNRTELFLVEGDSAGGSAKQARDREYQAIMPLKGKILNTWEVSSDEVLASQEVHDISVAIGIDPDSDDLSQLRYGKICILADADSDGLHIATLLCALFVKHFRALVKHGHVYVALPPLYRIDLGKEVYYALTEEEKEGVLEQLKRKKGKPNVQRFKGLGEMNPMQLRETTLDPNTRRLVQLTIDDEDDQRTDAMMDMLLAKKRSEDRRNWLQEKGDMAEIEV
# T4 sequence (P0AFI2 whole entry): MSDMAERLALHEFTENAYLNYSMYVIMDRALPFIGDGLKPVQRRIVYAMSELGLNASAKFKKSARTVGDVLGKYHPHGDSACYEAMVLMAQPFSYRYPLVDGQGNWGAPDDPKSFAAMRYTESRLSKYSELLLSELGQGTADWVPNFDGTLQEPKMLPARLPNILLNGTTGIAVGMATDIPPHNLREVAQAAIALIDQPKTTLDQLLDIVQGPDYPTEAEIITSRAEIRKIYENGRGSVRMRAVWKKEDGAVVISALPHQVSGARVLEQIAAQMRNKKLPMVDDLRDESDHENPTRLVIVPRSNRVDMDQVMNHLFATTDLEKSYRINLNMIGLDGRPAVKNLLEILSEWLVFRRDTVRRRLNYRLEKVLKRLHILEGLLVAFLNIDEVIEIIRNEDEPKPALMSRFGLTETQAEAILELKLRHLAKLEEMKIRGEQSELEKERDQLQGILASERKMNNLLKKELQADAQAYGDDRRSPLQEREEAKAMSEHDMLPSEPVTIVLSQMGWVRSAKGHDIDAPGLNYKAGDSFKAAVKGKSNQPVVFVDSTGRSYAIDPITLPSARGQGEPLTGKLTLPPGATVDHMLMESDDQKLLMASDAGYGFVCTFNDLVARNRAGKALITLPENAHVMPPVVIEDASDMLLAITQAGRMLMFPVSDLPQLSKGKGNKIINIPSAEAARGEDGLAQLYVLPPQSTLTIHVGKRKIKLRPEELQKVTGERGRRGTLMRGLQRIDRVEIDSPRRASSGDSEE
# T5 sequence (P11388 whole entry): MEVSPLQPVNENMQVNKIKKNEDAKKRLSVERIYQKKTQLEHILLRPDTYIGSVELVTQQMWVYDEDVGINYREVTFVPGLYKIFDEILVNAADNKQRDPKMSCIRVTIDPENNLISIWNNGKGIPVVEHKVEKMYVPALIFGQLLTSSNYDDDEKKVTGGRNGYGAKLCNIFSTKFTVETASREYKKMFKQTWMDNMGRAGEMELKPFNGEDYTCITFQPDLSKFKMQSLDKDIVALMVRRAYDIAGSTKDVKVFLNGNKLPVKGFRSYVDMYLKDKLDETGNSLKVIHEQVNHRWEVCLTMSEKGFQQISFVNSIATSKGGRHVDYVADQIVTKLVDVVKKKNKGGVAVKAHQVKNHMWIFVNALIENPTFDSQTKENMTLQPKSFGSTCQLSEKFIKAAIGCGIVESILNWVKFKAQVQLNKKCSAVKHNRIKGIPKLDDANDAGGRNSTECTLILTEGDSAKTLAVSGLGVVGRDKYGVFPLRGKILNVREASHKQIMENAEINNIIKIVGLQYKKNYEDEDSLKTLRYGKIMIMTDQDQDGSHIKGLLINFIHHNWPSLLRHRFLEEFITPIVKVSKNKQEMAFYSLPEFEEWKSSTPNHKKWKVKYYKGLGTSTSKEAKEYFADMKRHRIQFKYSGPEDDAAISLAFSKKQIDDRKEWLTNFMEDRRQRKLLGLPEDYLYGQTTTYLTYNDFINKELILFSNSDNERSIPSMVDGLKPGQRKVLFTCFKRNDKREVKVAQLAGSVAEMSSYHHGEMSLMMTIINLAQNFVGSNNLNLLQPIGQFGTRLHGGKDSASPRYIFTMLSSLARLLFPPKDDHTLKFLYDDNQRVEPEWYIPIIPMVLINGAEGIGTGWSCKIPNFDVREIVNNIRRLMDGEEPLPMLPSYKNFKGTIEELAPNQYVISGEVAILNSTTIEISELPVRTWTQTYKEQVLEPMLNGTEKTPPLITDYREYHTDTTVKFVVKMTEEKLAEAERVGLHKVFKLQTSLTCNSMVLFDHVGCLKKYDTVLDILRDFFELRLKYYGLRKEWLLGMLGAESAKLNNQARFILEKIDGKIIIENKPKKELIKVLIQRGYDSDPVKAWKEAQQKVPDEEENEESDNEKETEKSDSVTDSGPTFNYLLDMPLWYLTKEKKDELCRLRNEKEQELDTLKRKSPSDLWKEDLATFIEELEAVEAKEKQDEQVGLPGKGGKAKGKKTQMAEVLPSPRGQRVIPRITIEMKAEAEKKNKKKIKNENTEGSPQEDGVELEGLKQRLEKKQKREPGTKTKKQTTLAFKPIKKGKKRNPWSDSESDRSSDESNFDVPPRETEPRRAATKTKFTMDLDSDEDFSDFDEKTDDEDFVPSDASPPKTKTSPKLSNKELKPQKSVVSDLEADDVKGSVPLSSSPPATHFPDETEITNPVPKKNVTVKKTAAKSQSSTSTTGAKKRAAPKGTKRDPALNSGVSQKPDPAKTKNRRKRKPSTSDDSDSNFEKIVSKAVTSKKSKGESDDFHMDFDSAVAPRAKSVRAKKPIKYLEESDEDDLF
# T1 sequence (P20831 whole entry): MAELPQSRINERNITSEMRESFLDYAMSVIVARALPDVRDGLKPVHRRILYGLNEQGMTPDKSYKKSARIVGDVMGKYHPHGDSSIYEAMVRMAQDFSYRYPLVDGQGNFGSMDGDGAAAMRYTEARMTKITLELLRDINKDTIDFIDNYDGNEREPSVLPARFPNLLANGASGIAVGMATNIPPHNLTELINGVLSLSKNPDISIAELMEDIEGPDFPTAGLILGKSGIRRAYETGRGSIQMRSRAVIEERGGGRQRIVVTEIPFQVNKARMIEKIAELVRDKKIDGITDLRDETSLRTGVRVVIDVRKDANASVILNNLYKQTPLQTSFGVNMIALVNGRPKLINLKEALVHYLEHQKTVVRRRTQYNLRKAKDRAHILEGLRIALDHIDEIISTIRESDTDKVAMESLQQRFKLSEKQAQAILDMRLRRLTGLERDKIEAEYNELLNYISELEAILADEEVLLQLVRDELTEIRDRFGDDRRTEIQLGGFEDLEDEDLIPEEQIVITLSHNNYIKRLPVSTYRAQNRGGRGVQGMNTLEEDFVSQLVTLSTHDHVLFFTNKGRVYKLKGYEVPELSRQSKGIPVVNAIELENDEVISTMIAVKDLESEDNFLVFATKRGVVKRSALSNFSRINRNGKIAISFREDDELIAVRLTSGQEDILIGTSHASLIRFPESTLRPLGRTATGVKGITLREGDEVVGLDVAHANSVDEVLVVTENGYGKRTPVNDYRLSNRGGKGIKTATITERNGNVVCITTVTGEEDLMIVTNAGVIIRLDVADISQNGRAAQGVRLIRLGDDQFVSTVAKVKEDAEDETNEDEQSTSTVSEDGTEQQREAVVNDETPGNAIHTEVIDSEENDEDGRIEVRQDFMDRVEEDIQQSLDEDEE
# T1 sequence (P0A0K8 whole entry partner): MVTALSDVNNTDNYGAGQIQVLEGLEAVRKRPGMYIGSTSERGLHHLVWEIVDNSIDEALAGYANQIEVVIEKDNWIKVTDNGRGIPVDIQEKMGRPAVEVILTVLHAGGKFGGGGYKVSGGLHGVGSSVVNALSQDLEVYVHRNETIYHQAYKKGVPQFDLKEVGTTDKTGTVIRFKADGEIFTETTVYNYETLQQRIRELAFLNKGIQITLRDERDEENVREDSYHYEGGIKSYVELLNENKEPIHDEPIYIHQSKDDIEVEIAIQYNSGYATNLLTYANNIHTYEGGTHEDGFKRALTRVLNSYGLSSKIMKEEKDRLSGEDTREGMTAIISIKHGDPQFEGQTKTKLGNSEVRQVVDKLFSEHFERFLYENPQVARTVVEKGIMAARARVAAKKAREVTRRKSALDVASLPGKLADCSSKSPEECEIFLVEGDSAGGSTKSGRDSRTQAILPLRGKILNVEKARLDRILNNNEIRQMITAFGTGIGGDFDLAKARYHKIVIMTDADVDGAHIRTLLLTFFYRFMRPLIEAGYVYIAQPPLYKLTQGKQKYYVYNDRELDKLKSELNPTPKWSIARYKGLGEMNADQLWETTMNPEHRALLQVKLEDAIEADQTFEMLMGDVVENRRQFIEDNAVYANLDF
compound,measurement,setting,value
"COc1ccc2nccc(CCN3CCC(NCc4ccc(N)cc4)CC3)c2n1 [Compound 9, N-(4-Aminobenzyl)-1-(2-(6-methoxy-1,5-naphthyridin-4-yl)ethyl)piperidin-4-amine]",IC50,S. aureus DNA gyrase,1.38 ± 0.108 µM
same,IC50,S. aureus topoIV,> 100 µM
same,IC50,E. coli DNA gyrase,> 100 µM
same,IC50,E. coli topoIV,5.698 ± 0.014 µM
same,remaining activity at 100 µM,human topoisomerase IIα,100 ± 1%
same,MIC,"A. baumannii; 20 h, Table S3, read-out: MIC (μM) A. baumannii",> 328 µM
same,MIC,A. baumannii; read-out: MIC A. baumannii,> 128 µg/mL
same,MIC,"E. coli (ATCC 25922); ATCC25922, 20 h, Table S3, read-out: MIC (μM) E. coli (ATCC 25922)",> 328 µM
same,MIC,"E. coli (ATCC 25922); ATCC25922, read-out: MIC E. coli (ATCC 25922)",> 128 µg/mL
same,MIC,"E. coli D22; D22, 20 h, Table S3, lpxC mutation, read-out: MIC (μM) E. coli D22",> 328 µM
same,MIC,"E. coli D22; D22, lpxC mutation that increases membrane permeability, read-out: MIC E. coli D22",> 128 µg/mL
same,MIC,"E. coli ESBL QA-11.3; ESBLQA11.3, 20 h, Table S3, read-out: MIC (μM) E. coli ESBL QA:11.3",> 328 µM
same,MIC,"E. coli ESBL QA-11.3; ESBLQA11.3, read-out: MIC E. coli ESBL QA-11.3",> 128 µg/mL
same,MIC,E. coli N43 (CGSC# 5583); read-out: MIC (μM) E. coli N43,164 µM
same,MIC,E. coli N43 (CGSC# 5583); read-out: MIC E. coli N43 (CGSC# 5583),64 µg/mL
same,MIC,"E. faecalis RDK 057; Table S3, read-out: MIC (μM) E. faecalis DRK 057",> 328 µM
same,MIC,E. faecalis RDK 057; read-out: MIC E. faecalis RDK 057,> 128 µg/mL
same,MIC,"K. pneumoniae; 20 h, Table S3, read-out: MIC (μM) K. pneumoniae",> 328 µM
same,MIC,K. pneumoniae; read-out: MIC K. pneumoniae,> 128 µg/mL
same,MIC,"P. aeruginosa RDK 184; RDK184, 20 h, Table S3, read-out: MIC (μM) P. aeruginosa RDK 184",> 328 µM
same,MIC,"P. aeruginosa RDK 184; RDK184, read-out: MIC P. aeruginosa RDK 184",> 128 µg/mL
same,MIC,"S. aureus (ATCC 29213); ATCC29213, read-out: MIC (μM) S. aureus (ATCC 29213)",164 µM
same,MIC,"S. aureus (ATCC 29213); ATCC29213, read-out: MIC S. aureus (ATCC 29213)",64 µg/mL
same,IC50 at 72 h,[1]; HUVEC cells (ATCC CRL-1730),34 ± 16.9 µM
same,IC50 at 72 h,[1]; HepG2 cells (ATCC HB-8065),26.1 ± 9.52 µM
